Results on 1 compound are retold here after patent US20170121295A1, “POLYCYCLIC LPA1 ANTAGONIST AND USES THEREOF” (AMIRA PHARMACEUTICALS, INC., priority 2010, published 2017).

Like-named read-outs stand apart in the source and are kept apart here. Where only a bound is given, the exact number is not on record here.

Data set [1] can be described thus: Thermodynamic aqueous solubility. It counts as physicochemical. The conditions noted are these: water, equilibrated at 25° C. for 24 hours. The method, then: Aqueous solubility was determined by suspending sufficient compound in water to give a maximum final concentration of ≧10 mg·ml−1 of the parent free-form of the compound. The suspension was equilibrated at 25° C. for 24 hours then the pH was measured. The suspension was then filtered through a glass fiber C filter into a 96 well plate unless stated otherwise. The filtrate was then diluted by a factor of 101. Quantification was by HPLC with reference to a standard solution of approximately 0.25 mg·ml^−1 in DMSO. Different volumes of the standard, diluted and undiluted sample solutions were injected. The solubility was calculated using the peak areas determined by integration of the peak found at the same retention time as the principal peak in the standard injection.
Analysis was performed on an Agilent HP1100 series system equipped with a diode array detector and using ChemStation software vB.02.01-SR1.

The nature of data set [2]: Pharmacokinetics in Sprague-Dawley Rats. It counts as in vivo. The conditions noted are these: for mean dose adjusted exposure (AUC0-24/D) / Cmax / bioavailability / AUC(0-t): PO 1 mg/kg; for mean dose adjusted exposure (AUC0-24/D) / dose adjusted AUC value (AUC0-24/D) / Cmax / bioavailability: fasted; for Cmax / bioavailability / AUC(0-t): Sprague-Dawley, rat, plasma; for Cmax: read-out: maximal plasma concentration (Cmax); for bioavailability: read-out: apparent bioavailability; for AUC(0-t): fed, read-out: exposure (AUC0-24). The method, then:
The pharmacokinetics of Compound 1 and Compound 2 was assessed in male and female Sprague-Dawley rats (225-300 g at 10 weeks).
Compound 2 (1 mg/kg) was administered intravenously (IV) to fasted rats (n=3) as a solution in purified water via a bolus injection into the jugular vein (1 mg/mL; 1 mL/kg). Compound 1 (10 mg/kg) was administered orally (PO), to fasted (for at least 12 hours) or non-fasted rats (n=2 or 3) as a solution in 0.5% methylcellulose unless otherwise noted via an oral gavage to the stomach (3.33 mg/mL; 3 mL/kg). Non-fasted animals were fasted for at least 12 hours and then were given food ad libitum for 1 hour prior to dosing. Fasted animals were dosed 1, 10, 30, 100 or 300 mg/kg Compound 1 as a solution in 0.5% methylcellulose via an oral gavage to the stomach (0.69 mg/mL, 10 mg/mL, 33.3 mg/mL or 100 mg/mL) (n=2 or 3 per dose group). In a gastrointestinal study, rats were anesthetized and Compound 1 was administered directly to the duodenum, jcjunum or ilcum at 1 mg/kg in 0.5% methylcellulose.
Capsules were also administered with Compound 2. Capsules were size 9 gelatin (Torpac, San Diego, Calif.).
Blood samples (approximately 300 μL total blood) were taken from each rat via the jugular vein cannula at pre-dose, and an initial time of 5 or 15 min and then various time points up to 24 hours post-dose (10-11 samples per animal). Samples were collected on wet ice in tubes containing potassium EDTA. After each blood draw, the cannula was flushed with an equivalent volume of heparinized saline (0.1 mL at 40 units/mL). Plasma samples, prepared by centrifugation of whole blood, were stored frozen (−80° C.) prior to analysis.

Data set [3] can be described thus: Solubility in a range of solvents (crystallisation experiments). It counts as physicochemical. The conditions noted are these: organic solvents; water, cyclohexane, heptane unsuitable. The procedure:
20 mg of Compound 1 was weighed into a HPLC vial. 40 μL of ethanol was added and the vial was heated to reflux with a hot air gun. The solution was cooled to ambient temperature and the solids were filtered off. Crystalline Compound 1 (Pattern 1) was obtained as determined by XRPD. In the same manner as described from ethanol, the following solvents also provided crystalline Compound 1 (Pattern 1): methanol, 2-methoxyethanol, ethanol, 1-propanol, 2-propanol, 1-butanol, butyl acetate, acetone, methylethyl ketone, anisole, toluene. 5 Volumes (i.e. 100 μL) of the following solvents with heating also provided crystalline Compound 1 (Pattern 1): nitromethane, acetonitrile, ethyl acetate, cumene.
Compound 1 dissolved in 2 volumes (i.e. 40 μL) of the following solvents at ambient temperature: 1-4-dioxane, tetrahydrofuran. The vials were uncapped and allowed to slowly evaporate. This provided crystalline Compound 1 (Pattern 1).

Another data set concerns the target T1, human LPA2 (Homo sapiens, UniProt Q9HBW0).
T1 construct: endogenous in cells; host or cells: BT-20 human breast cancer cells
Put plainly: LPA2 Calcium Flux Assay. The data set is classed as cell-based. The conditions noted are these: 100 nM LPA; read-out: Ca Flux IC50 LPA2. The method, then:
A vector containing the human LPA2 receptor cDNA was obtained from the Missouri S&T cDNA Resource Center (www.cdna.org). The full-length cDNA fragment for human LPA2 was obtained by PCR from the vector. The nucleotide sequence of the cloned human LPA2 was determined by sequencing and confirmed to be identical to the published human LPA2 sequence (NCBI accession number NM_004720). The cDNA was cloned into the pCDNA3.1 expression plasmid and transfected into B103 cells (Invitrogen Corp., USA) by seeding cells in a 96-well poly-D-lysine coated plate at 30,000-35,000 cells per well together with 0.2 μl lipofectamine 2000 and 0.2 μg of the LPA2 expression vector. Cells were cultured overnight in complete media before being assayed for LPA-induced Ca-influx.
BT-20 human breast cancer cells are seeded at 25,000-35,000 cells per well in 150 μl complete media on Poly-D-Lysine coated black-wall clear-bottom plates. Following an overnight culture, cells are washed once with PBS then serum starved for 4-6 hours prior to the assay. […] Cells are the stimulated by the addition of 100 nM LPA and intracellular Ca^2+ measured using the Flexstation 3 (Molecular Devices). IC50s are determined using Symyx Assay Explorer analysis of drug titration curves.

T1 sequence (Q9HBW0 whole entry): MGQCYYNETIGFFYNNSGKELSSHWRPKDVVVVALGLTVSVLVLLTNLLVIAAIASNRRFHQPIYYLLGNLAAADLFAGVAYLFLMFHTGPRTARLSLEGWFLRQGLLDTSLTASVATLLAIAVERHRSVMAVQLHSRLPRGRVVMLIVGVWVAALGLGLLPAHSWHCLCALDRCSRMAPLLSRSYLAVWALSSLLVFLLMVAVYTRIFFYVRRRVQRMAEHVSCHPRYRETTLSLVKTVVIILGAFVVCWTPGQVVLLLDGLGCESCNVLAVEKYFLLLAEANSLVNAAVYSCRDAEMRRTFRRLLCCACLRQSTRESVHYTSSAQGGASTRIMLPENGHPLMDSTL

By bioavailability is commonly meant the share of a dose that reaches the circulation, judged against a reference dose that is usually intravenous. As a reminder, the IC50 is the concentration that inhibits the measured activity by half. Regarding `Cc1noc(-c2ccc(-c3ccc(C4(C(=O)O)CC4)cc3)cc2)c1NC(=O)O[C@H](C)c1ccccc1` [Compound 1, 1-{4′-[3-methyl-4-((R)-1-phenyl-ethoxycarbonylamino)-isoxazol-5-yl]-biphenyl-4-yl}-cyclopropanecarboxylic acid], in data set [1] (25 °C, thermodynamic from solid, read-out: Solubility (mg/ml, free form equivalent)), the solubility at 24 h is 0.028 mg/mL. Also, the “Solubility (mg/ml, free form equivalent)” value in data set [1] (listed as free acid) amounted to 0.031 mg/mL. The mean dose adjusted exposure (AUC0-24/D) is 1.9 µg·h/mL in data set [2] (females) and 2.1 µg·h/mL in data set [2] (males). Also, in data set [2] (PO 10 mg/kg), the “exposure in fed vs. fasted animals” value is “slightly lower exposure in fed animals vs. fasted”. For the same compound, the “dose adjusted AUC value (AUC0-24/D)” value in data set [2] (PO 10 mg/kg, female rats) turned out to be 2.7 µg·h/mL; in data set [2] (PO 10 mg/kg, male rats) it was 2.4 µg·h/mL. The “dose proportionality of exposure” value in data set [2] (PO 30, 100 and 300 mg/kg) is listed as “greater than dose proportional”; in data set [2] (PO doses of 1 and 10 mg/kg, suspension) it was “dose proportional”. In addition, the Cmax was 300 ng/mL in data set [2] (female rats) and 400 ng/mL in data set [2] (male rats). Further, the bioavailability in data set [2] (female) came to 58%; in data set [2] (male), 63%. The AUC(0-t) in data set [2] (female rats) was determined as 1400 ng·h/mL; in data set [2] (male rats), 1600 ng·h/mL. Also, the regional absorption entry in data set [2] (administered directly to duodenum, jejunum or ileum at 1 mg/kg) is “good oral bioavailability along the entire gastrointestinal tract”. The same compound showed a dose normalized exposure in data set [2] (oral, 10 mg/kg) of 5.1 µg·h/mL. In data set [3], the “solubility in a range of solvents” value was “good solubility in a range of solvents”. Moreover, the IC50 at human LPA2 was over 1 µM.
